Measured values published in ChEMBL document CHEMBL3714768 (2012).

Experiments:
MCF7 = experiment: Cytotoxicity against human MCF7 cells by fluorescent Calcein-AM assay; type: functional, cell-based
[1] = Selectivity index, ratio of IC50 for purified human red blood cell PP2A (unknown origin) to IC50 for purified rabbit skeletal muscle PP1
[2] = Cytotoxicity against human HCT116 cells by fluorescent Calcein-AM assay; type: functional, cell-based; conditions: hct-116
[3] = Cytotoxicity against human DU145 cells by fluorescent Calcein-AM assay; type: functional, cell-based; conditions: du-145
[4] = target: Serine/threonine-protein phosphatase PP1-alpha catalytic subunit (Oryctolagus cuniculus, UniProt P62139); experiment: Inhibition of purified rabbit skeletal muscle protein phosphatase 1 using DiFMUP substrate incubated for 30 mins
Serine/threonine-protein phosphatase PP1-alpha catalytic subunit, sequence (P62139 whole entry): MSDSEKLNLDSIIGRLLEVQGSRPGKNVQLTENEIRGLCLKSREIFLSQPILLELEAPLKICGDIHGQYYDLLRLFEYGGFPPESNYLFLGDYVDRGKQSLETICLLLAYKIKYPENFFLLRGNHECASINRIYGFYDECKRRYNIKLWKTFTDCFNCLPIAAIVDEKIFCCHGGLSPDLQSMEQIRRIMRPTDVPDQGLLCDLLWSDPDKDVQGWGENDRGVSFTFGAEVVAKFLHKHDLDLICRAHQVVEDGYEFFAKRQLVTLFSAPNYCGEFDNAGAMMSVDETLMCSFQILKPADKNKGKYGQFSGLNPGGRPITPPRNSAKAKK

Compound	IC50 (MCF7)	Ratio IC50 [1]	IC50 [2]	IC50 [3]	IC50 [4]
CCC(/C=C/C(=O)O)=C\[C@@H](O)C[C@H](C)C[C@@H](C)CC[C@H](O)[C@H](C)C(=O)C[C@@H](O)[C@H](C)[C@@H](C)OC(=O)C[C@@H](O)C1=C(C)C(=O)OC1=O	Not Active	4.5	Not Active	Not Active	
CC/C(=C\CC[C@H](C)C[C@@H](C)CC[C@H](O)[C@H](C)C(=O)C[C@@H](O)[C@H](C)[C@@H](C)OC(=O)C[C@@H](O)C1=C(C)C(=O)OC1=O)C(O)CC(=O)O (some centres undefined)	Not Active	3.8	Not Active	Not Active	
CCC(/C=C/C(=O)O)=C\[C@H](O)C[C@H](C)C[C@@H](C)CC[C@H](O)[C@H](C)C(=O)C[C@@H](O)[C@H](C)[C@@H](C)OC(=O)C[C@@H](O)C1=C(C)C(=O)OC1=O		3.8			
CCC(/C=C/C(=O)O)=C\CC[C@H](C)C[C@@H](C)CC[C@H](O)[C@H](C)C(=O)C[C@@H](O)[C@H](C)[C@@H](C)OC(=O)C[C@@H](O)C1=C(C)C(=O)OC1=O	Not Active	4	Not Active	Not Active	
CCC(/C=C/C(=O)O)=C\C(=O)C[C@H](C)C[C@@H](C)CC[C@H](O)[C@H](C)C(=O)C[C@@H](O)[C@H](C)[C@@H](C)OC(=O)C[C@@H](O)C1=C(C)C(=O)OC1=O					28 µM
